ChEMBL document CHEMBL1201862, “PubChem BioAssay data set” (2004)
Activity calls are given as the source filed them.

Key:
[1] = inhibitors of EBV LMP1 NF-kappaB signaling – cell-based, luciferase reporter, luminescence, dry powder, set 2, dose response (AID 624376); format: functional
[2] = target: Arf-GAP with SH3 domain, ANK repeat and PH domain-containing protein 1 (Homo sapiens, UniProt Q9ULH1); format: functional;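 further: biochemical fluorescence polarization dose–response screen measuring inhibition of ASAP1; ASAP1 GAP domain stimulating GTP hydrolysis by truncated human ARF1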
[3] = MITF Orthogonal Assay: SK-MEL-5 CTG Assay Measured in Cell-Based System Using Plate Reader - 2084-02_Inhibitor_Dose_DryPowder_Activity_Set7.; format: functional
[4] = MITF: Counter assay: A375 proliferation Measured in Cell-Based System Using Plate Reader - 2084-03_Inhibitor_Dose_DryPowder_Activity_Set8.; format: functional; settings: A-375
[5] = inhibitors of TRPM1-promoter reporter in SK-MEL-5 – cell-based, luciferase, dry powder, set 8, MITF inhibitor project, dose response (AID 624430); format: functional
[6] = target: T1, Methionyl-tRNA synthetase, putative (Trypanosoma brucei brucei, UniProt Q38C91); format: functional, Trypanosoma brucei brucei strain 927/4 GUTat10.1
T1 sequence (Q38C91 whole entry): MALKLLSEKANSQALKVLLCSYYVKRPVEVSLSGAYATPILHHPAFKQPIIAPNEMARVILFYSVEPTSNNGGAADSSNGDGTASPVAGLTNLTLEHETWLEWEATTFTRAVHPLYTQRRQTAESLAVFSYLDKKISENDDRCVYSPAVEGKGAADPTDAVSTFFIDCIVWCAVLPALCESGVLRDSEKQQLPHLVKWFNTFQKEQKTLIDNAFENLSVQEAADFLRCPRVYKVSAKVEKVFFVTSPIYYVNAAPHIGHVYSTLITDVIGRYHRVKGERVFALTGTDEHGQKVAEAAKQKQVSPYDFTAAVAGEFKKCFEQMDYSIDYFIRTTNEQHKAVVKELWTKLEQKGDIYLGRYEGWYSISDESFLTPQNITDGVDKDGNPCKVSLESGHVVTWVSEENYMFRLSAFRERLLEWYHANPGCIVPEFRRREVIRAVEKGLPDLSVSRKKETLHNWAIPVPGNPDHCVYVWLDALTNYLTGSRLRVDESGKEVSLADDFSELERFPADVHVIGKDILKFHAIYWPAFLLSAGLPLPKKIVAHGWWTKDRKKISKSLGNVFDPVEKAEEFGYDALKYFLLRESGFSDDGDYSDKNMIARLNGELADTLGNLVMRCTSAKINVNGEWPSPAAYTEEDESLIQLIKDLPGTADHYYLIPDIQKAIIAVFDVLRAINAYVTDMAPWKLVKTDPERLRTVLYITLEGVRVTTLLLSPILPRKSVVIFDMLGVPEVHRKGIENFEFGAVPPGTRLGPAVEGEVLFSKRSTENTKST

[7] = Counterscreen for inhibitors of Trypanosoma brucei methionyl tRNA synthetase (MetRS): Luminescence-based cell-based high throughput dose response assay to identify compounds that are cytotoxic to Jurkat human T lymphocyte cells.; format: functional
[8] = target: T1, Methionyl-tRNA synthetase, putative; format: functional, Trypanosoma brucei brucei strain 927/4 GUTat10.1; remark: listed apart in the source
HeLa = test: viability loss in HeLa cells – cell-based, ATP luminescence, cherry-pick samples, cytotoxicity control, dose response (AID 687004); format: functional; settings: Homo sapiens
HEK293 = test: viability loss in HEK293T cells – cell-based, ATP luminescence, cherry-pick samples, cytotoxicity control, dose response (AID 687005); format: functional; settings: Homo sapiens;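 further: cells exposed to compound for 48 hours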
[9] = HEK293 Cytotoxicity Assay Measured in Cell-Based System Using Plate Reader - 7071-01_Inhibitor_Dose_CherryPick_Activity_Set2.; format: functional
[10] = Luminescence Cell-Based Dose Response HTS to Identify Activators of Luciferase Translation or Activity in H4 […] Cells. [Related pubchem assays: 1829 (Project Summary), 1814 (Primary HTS)]; format: functional
H4 = test: Luminescence Cell-Based Dose Response HTS to Identify Activators of 5'UTR Stem-Loop Driven Prion Protein mRNA Translation in H4 Neuroglioblastoma Cells. [Related pubchem assays: 1829 (Project Summary), 1814 (Primary HTS)]; format: functional; settings: Homo sapiens
Major prion protein = Major prion protein (Homo sapiens, UniProt P04156); format: functional, cell-based
cells [11] = test: cells
Beta-lactamase [12] = target: Beta-lactamase (Salmonella choleraesuis (strain SC-B67), UniProt Q5J463); test: Epi-absorbance-based counterscreen for selective VIM-2 inhibitors: dose response biochemical high throughput screening assay to identify inhibitors of TEM-1 serine-beta-lactamase.
Beta-lactamase [13] = target: T2, Beta-lactamase (Pseudomonas aeruginosa, UniProt Q79MP6); test: inhibition of IMP-1 beta-lactamase activity – biochemical, epi-absorbance, selectivity assay for VIM-2 inhibitor project, dose response (AID 1920)
Beta-lactamase [14] = target: T2, Beta-lactamase; test: […] counterscreen for selective VIM-2 inhibitors: dose response biochemical high throughput screening assay to identify inhibitors of IMP-1 metallo-beta-lactamase.
cells [15] = format: functional, cell-based
cells [16] = format: functional, cell-based; remark: listed apart in the source
[17] = target: T3, Oxysterols receptor LXR-beta (Homo sapiens, UniProt P55055); format: functional, cell-based;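 further: agonist activity at LXR measured by a cell-based luminescence readout across a dose range, run as a counterscreen for daf-12 agonists; HEK293 cells with Gal4-LXR fusion and GAL4-driven luciferase reporter; potency for activation of Gal4-LXR reporter so compounds are agonists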
T3 sequence (P55055 whole entry): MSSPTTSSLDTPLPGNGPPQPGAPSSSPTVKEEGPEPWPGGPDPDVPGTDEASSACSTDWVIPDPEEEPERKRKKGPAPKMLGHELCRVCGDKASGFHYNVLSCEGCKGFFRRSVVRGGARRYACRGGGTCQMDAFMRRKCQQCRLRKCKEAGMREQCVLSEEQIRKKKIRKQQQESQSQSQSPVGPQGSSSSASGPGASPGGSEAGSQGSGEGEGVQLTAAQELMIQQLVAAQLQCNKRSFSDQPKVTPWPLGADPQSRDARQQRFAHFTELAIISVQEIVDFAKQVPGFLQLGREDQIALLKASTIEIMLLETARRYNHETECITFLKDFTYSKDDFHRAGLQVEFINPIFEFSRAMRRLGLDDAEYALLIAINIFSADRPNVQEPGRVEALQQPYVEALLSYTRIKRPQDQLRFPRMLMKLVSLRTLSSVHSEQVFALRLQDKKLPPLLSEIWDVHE

[18] = target: T4, Corticotropin-releasing factor receptor 2/Corticotropin-releasing factor-binding protein (Homo sapiens, UniProt P24387+Q13324); test: Dose Response confirmation of uHTS hits for small molecule antagonists of the CRF-binding protein and CRF-R2 receptor complex.; format: functional; settings: read-out: IC50_Mean
T4 sequence (Q13324 whole entry): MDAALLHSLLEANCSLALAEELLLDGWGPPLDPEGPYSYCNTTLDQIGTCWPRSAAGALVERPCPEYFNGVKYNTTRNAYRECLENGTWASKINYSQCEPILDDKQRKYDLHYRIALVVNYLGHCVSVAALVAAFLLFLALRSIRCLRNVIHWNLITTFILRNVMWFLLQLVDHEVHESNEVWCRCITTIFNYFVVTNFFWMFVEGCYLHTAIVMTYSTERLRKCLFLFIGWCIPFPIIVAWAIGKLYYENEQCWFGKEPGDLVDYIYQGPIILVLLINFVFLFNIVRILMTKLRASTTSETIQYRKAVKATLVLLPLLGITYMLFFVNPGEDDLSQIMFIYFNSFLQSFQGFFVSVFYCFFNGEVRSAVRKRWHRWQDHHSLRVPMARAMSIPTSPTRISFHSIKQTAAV
T4 sequence (P24387 whole entry): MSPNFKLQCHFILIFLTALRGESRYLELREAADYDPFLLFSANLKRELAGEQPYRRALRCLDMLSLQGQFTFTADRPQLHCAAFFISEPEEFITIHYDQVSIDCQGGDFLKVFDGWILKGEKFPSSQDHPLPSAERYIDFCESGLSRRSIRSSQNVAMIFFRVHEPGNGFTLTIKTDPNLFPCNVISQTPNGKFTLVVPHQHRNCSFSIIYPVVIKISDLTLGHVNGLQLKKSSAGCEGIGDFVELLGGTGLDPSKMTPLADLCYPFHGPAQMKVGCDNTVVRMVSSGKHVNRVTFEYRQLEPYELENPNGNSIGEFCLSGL

[19] = target: T4, Corticotropin-releasing factor receptor 2/Corticotropin-releasing factor-binding protein; test: activators of CRF receptor 2 with binding protein – uHTS hits, confirmation (AID 602473); format: functional; settings: read-out: EC50_Mean
[20] = viability loss in HEK293 kidney cells – cell-based, cherry-picks, set 5, cytotoxicity control, dose response (AID 1053117); format: functional
cells [21] = format: functional, cell-based; remark: listed apart in the source
[22] = target: T5, Trace amine-associated receptor 1 (Homo sapiens, UniProt Q96RJ0); test: Fluorescence-based cell-based high throughput dose response assay to identify agonists of the human trace amine associated receptor 1 (TAAR1).; format: functional
T5 sequence (Q96RJ0 whole entry): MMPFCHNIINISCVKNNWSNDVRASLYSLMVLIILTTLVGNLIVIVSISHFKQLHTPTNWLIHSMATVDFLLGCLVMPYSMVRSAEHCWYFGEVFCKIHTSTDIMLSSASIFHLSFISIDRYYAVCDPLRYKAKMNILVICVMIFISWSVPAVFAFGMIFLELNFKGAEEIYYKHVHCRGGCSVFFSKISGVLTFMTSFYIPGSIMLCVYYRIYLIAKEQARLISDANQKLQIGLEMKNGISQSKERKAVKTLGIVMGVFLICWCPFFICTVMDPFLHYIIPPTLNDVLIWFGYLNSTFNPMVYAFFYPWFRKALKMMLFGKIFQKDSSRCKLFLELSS

[23] = target: T5, Trace amine-associated receptor 1; test: Counterscreen for agonists of the human trace amine associated receptor 1 (hTAAR1): Fluorescence-based cell-based high throughput dose response assay to identify hTAAR1 agonist that also desensitize TAAR1 receptor response.; format: functional
cells [24] = format: functional, cell-based; remark: listed apart in the source
Paired box protein Pax-8 = Paired box protein Pax-8 (Homo sapiens, UniProt Q06710); test: PAX8 transcriptional activity inhibition in RMG-I – RMG-I cells, luciferase, cherry-pick, dose response (AID 687027); format: functional, cell-based;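 further: luciferase reporter driven by Pax8 target thyroperoxidase promoter measured by SteadyGlo luminescence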
[25] = A2780 cell killing – plate reader, dry powder samples, cytotoxicity control, dose response (AID 743046); format: functional, cell-based

Cc1noc(C)c1S(=O)(=O)Nc1ccc2c(c1)C(=O)N([C@@H](C)CO)C[C@@H](C)[C@H](CN(C)Cc1ccc(C(F)(F)F)cc1)OCCCC[C@@H](C)O2
AbsAC35 [1]: 151.1 µM

COc1ccc(/C=C2\C(=O)NC(=O)c3ccccc32)cc1OC
IC50 [2]: 165 µM (inactive)

O=C1C(Nc2ccc(I)cc2)=C(N2CCCCC2)C(=O)c2ccccc21
AC50 [3]: 15.9 µM (active) | AC50 [4]: > 70 µM (inactive) | AC50 [5]: 9.62 µM (active)

OC(c1cc(F)cc(Cl)c1)c1nc(-c2cccc(C(F)(F)F)c2)c[nH]1 (stereo not given)
IC50 [6]: 27.7 µM (inactive) | IC50 [7]: 42.2 µM (inactive) | IC50 [8]: 17.5 µM (inactive)

C[C@@H]1CN([C@@H](C)CO)C(=O)c2cc(NS(=O)(=O)c3ccc(F)cc3)ccc2O[C@@H](C)CCCCO[C@H]1CN(C)S(=O)(=O)c1ccc(F)cc1
AC50 (HeLa): > 52 µM (inactive) | AC50 (HEK293): 22.5 µM (active) | AC50 [9]: 22.5 µM (active)

CC1CCCN(C(=O)CSc2cnc3ccccc3n2)C1 (stereo not given)
EC50 [10]: 5.25 µM (active) | EC50 (H4): 11 µM (active) | IC50 (Major prion protein): 5.87 µM (active) | IC50 (cells [11]): > 138 µM (inactive)

C[C@H]1CN([C@@H](C)CO)C(=O)c2c(c3ccccc3n2C)-c2ccccc2CO[C@@H]1CN(C)C(=O)Nc1ccc(F)cc1
AbsAC35 [1]: 78.41 µM

O=C(CSc1nnc(NC(=O)c2c(F)cccc2F)s1)NCc1ccccc1
IC50 (Beta-lactamase [12]): > 59.6 µM (inactive) | IC50 (Beta-lactamase [13]): > 59.6 µM (inactive) | IC50 (Beta-lactamase [14]): > 59.6 µM (inactive)

O=C(NCCCn1ccnc1)c1cc(-c2ccccc2)on1
EC50 (cells [15]): 8.67 µM (active) | EC50 (cells [16]): > 350 µM (not active) | EC50 [17]: > 67.5 µM (inactive)

COc1ccc2c(C)cc(SCc3c(C)noc3C)nc2c1
IC50 [18]: > 47.1 µM (inactive) | EC50 [19]: > 53 µM (inactive) | IC50 (Major prion protein): 4.31 µM (active) | IC50 (cells [11]): > 138 µM (inactive)

Cc1ccc(NC(=O)C(C)c2cccc(C(=O)c3ccccc3)c2)cc1 (stereo not given)
IC50 [6]: 7.61 µM (active) | IC50 [7]: 83.3 µM (inactive) | IC50 [8]: 3.15 µM (active)

C[C@H]1CN([C@@H](C)CO)C(=O)c2cc(-c3ccccc3)cnc2O[C@H]1CN(C)C(=O)c1cccc(F)c1
AC50 [20]: > 52 µM (inactive)

Cc1cc(O)ccc1Nc1cc(-c2cccc(N(C)C)c2)ncn1
EC50 [17]: > 67.5 µM (inactive)

O=C(N[C@@H](Cc1cccnc1)C(=O)N1CCC[C@H]1C(=O)NCCc1ccccc1Cl)c1ccccc1
IC50 (cells [21]): > 29.9 µM (inactive) | EC50 [22]: 4.3 µM (active) | IC50 [23]: 5.16 µM (active) | EC50 (cells [24]): > 29.9 µM (inactive)

O=C1C=C(Nc2cc(Cl)cc(Cl)c2)C(=O)c2ccccc21
AC50 [3]: 1.12 µM (active) | AC50 [4]: 24 µM (active) | AC50 [5]: 23.9 µM (active)

Cc1ccc(/C=N/NC(=O)CCCOc2ccc(Cl)cc2Cl)cc1[N+](=O)[O-]
IC50 [2]: 26.1 µM (inactive)

O=C(O)C1C2C=CC(C2)C1C(=O)NCCc1ccccc1 (stereo not given)
IC50 (cells [21]): > 29.9 µM (inactive) | EC50 [22]: 0.14 µM (active) | IC50 [23]: 5.26 µM (active) | EC50 (cells [24]): > 29.9 µM (inactive)

Cc1noc(C)c1S(=O)(=O)N(C)C[C@H]1OCCCC[C@@H](C)Oc2ccc(NS(=O)(=O)c3ccc(Cl)cc3)cc2C(=O)N([C@@H](C)CO)C[C@H]1C
AC50 (Paired box protein Pax-8): 10.9 µM (active) | AC50 [25]: < 0.26 µM (active)
